The subject of one experiment is guinea pig platelets. Description: Suppression of ADP-induced aggregation of guinea pig platelets. The class given is cell-based. Conditions: Cavia porcellus; guinea pig platelet-rich plasma, ADP (3 μM). The procedure: Ten-week-old Hartley male guinea pigs were anesthetized with pentobarbital (30 mg/kg, i.p. injected) and a total of 20 mL of blood was sampled into a syringe containing 2.0 mL of 3.8% sodium citrate. The blood was immediately centrifuged at 900 rpm for 10 minutes at 20° C. to recover the supernatant PRP. By further centrifugation at 3000 rpm for 10 minutes at 20° C., the supernatant PPP was recovered. The platelet count of PRP was diluted with PPP to 30×10^4 platelets/μL for subsequent use.
For platelet aggregation measurement, a platelet aggregation measuring instrument (PAM-8C) was employed. To 274 μL of PRP, 1 μL of a 0.287-95.7 nM test drug solution in ethanol was added and the mixture was incubated at 37° C. for 3 minutes with stirring at 1000 rpm. After the incubation, 25 μL of ADP (3 μM) was added to induce platelet aggregation and a maximum percent aggregation for 5 minutes was measured.
The percent suppression of aggregation by each test drug was calculated from the maximum percent aggregation by the test drug as relative to the maximum percent aggregation by ethanol instead of the test drug solution and IC50 values were determined from the constructed dose-response curve.

Experiment [1] has as its system NC/Nga mice manifesting atopic dermatitis. Description: Spontaneous itch-evoked scratching behavior of NC mice (Test Example 1). The class given is in vivo. On the procedure: About 20-week old NC/Nga mice each weighing about 30 g and manifesting atopic dermatitis were purchased from SLC and subjected to the following experiment. A magnet was buried in both hind paws of each mouse and by detecting its magnetism, the movement of the paws was measured with an itch measuring system (product of Neuroscience; when the mouse makes an action, the magnets move accordingly and a current flows through the coil; the moving magnets cause a change in the current, which is detected, measured and analyzed). Among the scratching actions, those lasting 1.5 seconds or longer were considered itch-evoked and their number was counted continuously. […] The subsequent 24-hr itch-evoked scratching behavior was measured and the number of itch-evoked scratchings after drug administration was compared with the initial count. The experimental data was processed to calculate the percent itch suppression on the basis of the total 24-hr itch-evoked scratching counts before and after drug application. For significance testing, the itch-evoked scratching counts that were obtained before and after drug application from individual animals in each group treated with a specific concentration of drug were processed by a paired t-test. Percent itch suppression (%)=(itch-evoked scratching count before drug application−itch-evoked scratching count after drug application)×100/itch-evoked scratching count before drug application (Results)

Experiment [2] concerns BALB/c male mice. Description: Mouse skin's barrier function, preventive test, TEWL (Test Example 6). The class given is in vivo. Conditions: cohabitation with dermatitic NC/Nga mice; 0.01% in ethanol, 100 μL, once a day for 7 days. The procedure:
Six-week-old BALB/c male mice in groups of six were shaven in a rostral dorsolateral area of 4 cm^2 (2 cm×2 cm) with electric clippers and kept in the same cage as NC/Nga mice that had developed dermatitis. From the day next to the start of cohabitation, a solvent (ethanol, 100 μL) or a drug dissolved in the solvent (compound No. 7, PGD2, PGF2α, or PGE1, all being at 0.01% in an amount of 100 μL) was applied to the shaven site for 7 days on once-a-day basis.
On the day next to the seventh application of the solvent or drug, the transepidermal water loss (TEWL) at the same site was measured with Tewameter (TM210 of Courage & Khazawa, Germany) to evaluate the drug's action, with the solvent-applied group being used as the control group.

In experiment [3] the target is T1, thromboxane (TP) receptor (Homo sapiens, UniProt P21731).
T1 construct: endogenous in cells; host or cells: human washed platelets
T1 sequence (P21731 1-343): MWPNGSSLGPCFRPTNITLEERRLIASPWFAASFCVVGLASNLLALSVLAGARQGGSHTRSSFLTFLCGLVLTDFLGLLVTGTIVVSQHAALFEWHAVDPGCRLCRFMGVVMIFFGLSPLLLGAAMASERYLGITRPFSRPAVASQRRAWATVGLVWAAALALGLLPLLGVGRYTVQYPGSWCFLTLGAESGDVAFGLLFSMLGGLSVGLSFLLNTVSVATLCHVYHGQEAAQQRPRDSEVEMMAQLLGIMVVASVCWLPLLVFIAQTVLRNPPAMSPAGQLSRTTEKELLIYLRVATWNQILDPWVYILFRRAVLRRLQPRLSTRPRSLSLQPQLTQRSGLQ
Description: Human TP antagonistic action: [3H]SQ29548 binding to human washed platelets. On the procedure: (C) The effect of the active ingredient of the present invention (compound No. 7) on a thromboxane (TP) receptor was measured as compared with the thromboxane agonist U44069 as a positive control drug.
The antagonistic action of the test drug on the [^3H]SQ29548 binding to human washed platelets was investigated on the basis of a documented method (J. Pharmacol. Exp. Ther., vol. 245, pp. 786-792, 1988).

Experiment [4] deals with BALB/c male mice. Description: Mouse skin's barrier function, treatment test, TEWL (Test Example 5). The class given is in vivo. To be noted: barrier destroyed with acetone/diethyl ether; 0.01% in ethanol, 100 μL, once a day for 2 days. The procedure:
Six-week-old BALB/c male mice in groups of eight were shaven in a rostral dorsolateral area of 4 cm^2 (2 cm×2 cm) with electric clippers and the shaven area was covered for 60 seconds with an absorbent cotton (2 cm×2 cm) impregnated with a 1:1 liquid mixture of acetone and diethyl ether. This treatment for destroying the skin's barrier function was performed for 3 consecutive days on once-a-day basis. Starting on the day next to completion of the treatment for barrier destruction at day 3, a solvent (ethanol, 100 μL) or a drug dissolved in the solvent (compound No. 7, PGD2, PGF2α, or PGE1, all being at 0.01% in an amount of 100 μL) was applied to the barrier destroyed site for 2 days on once-a-day basis. On the day next to the second application of the solvent or drug, the transepidermal water loss (TEWL) at the same site was measured with Tewameter (TM210 of Courage & Khazawa, Germany) to evaluate the drug's action.

What is called IC50 is the concentration at which inhibition is half-maximal. One may read the inhibition as the drop in the measured response relative to a control, in per cent. A low value points to a response near the control.

Compound `O=C(O)CSCCCC[C@@H]1[C@@H](C#C[C@@H](O)C2CCCCC2)[C@H](O)C[C@H]1Cl` [Compound No. 7] showed an IC50 in the experiment with guinea pig platelets of 6.2 ± 2.3 nM. Also, the “Inhibition rate (%) (percent itch suppression)” value in experiment [1] (concentration 0.000001% in 100% ethanol, 0.2 ml/mouse on dorsal skin, 24-hr scratching counts before vs after) was 43.26%. For the same compound, the “Efficacy (significance, paired t-test)” value in experiment [1] (concentration 0.000001%, scratching counts before vs after application) is “** (**: P < 0.01)”. Further, the “transepidermal water loss (TEWL) compared to the control group” value in the experiment on BALB/c male mice [2] is “significant decrease in TEWL”. The compound further gave an inhibition at 1 µM in experiment [3] (1 μM) of 7%. Besides, 10 µM produced 28% inhibition in experiment [3] (concentration of 10 μM). Moreover, the “transepidermal water loss (TEWL) compared to the solvent-applied control group” value with BALB/c male mice [4] was “significant decrease in TEWL”.

The values above are taken from patent publication US7737182B2, “Pharmaceuticals for xerosis” (Taisho Pharmaceutical Co., Ltd., priority 2001, dated 2010).
